From a melting point compilation (Tetko et al.; mined from patent text by program, amines drawn as free bases though some values may be those of a salt)

Molecule `O=C1C=CC(OC2CCCCC2)N1` (centres undefined) has a melting point of 65 to 66 °C.
For `COc1ccc2cc(C=NCc3ccccc3)ccc2c1`, the melting point was 115 to 117 °C.
`CCC1(O)CC(=O)OCc2c1cc1n(c2=O)Cc2c-1nc1ccccc1c2C1CCCCC1` (centres undefined) gave a melting point of over 250 °C.
With `Cc1ccc(S(=O)(=O)N2CCN(S(=O)(=O)c3ccc(C)cc3)CC3=CC=C(CN(S(=O)(=O)c4ccc(C)cc4)CC2)S3)cc1` the melting point was 265 to 268 °C.
Work on `NNN=CN(N)CC(=O)O` yielded a melting point of 148 to 149 °C.
`COc1cc2c(cc1OS(N)(=O)=O)CC(C)(C)N(C(=O)c1cc(OC)c(OC)c(OC)c1)C2` gave a melting point of 172 to 176 °C.
Work on `CN1CCN(c2ccc(/C=C/c3ccccc3F)cc2)CC1` yielded a melting point of 142 to 144 °C.
Molecule `COc1c(N2CC(C)C(N)C(C)(C)C2)c(F)cc2c(=O)c(C(=O)O)cn(C3CC3)c12` (centres undefined) has a melting point of 218 to 220 °C.
With `Cc1cccc(C(=O)NCN2CCN(c3ncccc3C#N)CC2)c1` the melting point was 128 to 130 °C.
`Cc1cc(C(C)(C)C)c(O)c(C)c1COC(=O)c1cccc(C(=O)OCc2c(C)cc(C(C)(C)C)c(O)c2C)c1` showed a melting point of 155 to 156 °C.
Molecule `COc1cccc2c1C13CCNC(C2)C1(O)CCC(=O)C3` (centres undefined) has a melting point of 137 to 139 °C.
`COC(=O)c1cncn1C1c2ccccc2CC1(C)C` (single isomer, unassigned; (-)) gave a melting point of 74 to 76 °C.
For `Cc1cc(OCc2ccc(-c3ccccc3-c3nnn(C(c4ccccc4)(c4ccccc4)c4ccccc4)n3)cc2)c(C(=O)c2ccccc2)c(C)n1`, the melting point was 84 to 91 °C.
Molecule `O=C(c1ccco1)c1cnn2c(-c3cccc(N4CCCC4=O)c3)ccnc12` has a melting point of 210 to 211 °C.
In the case of `Nc1cc(Cl)nc(SCc2cccc(O)c2)n1`, the melting point is reported as 148 °C.
`CC(CCOc1ccccc1NS(C)(=O)=O)N1CCC(OC(c2ccccc2)c2cccs2)CC1` (centres undefined) showed a melting point of 100 to 102 °C.
In the case of `COc1cc(C(F)(F)F)nc2c(Cl)ccc(F)c12`, the melting point is reported as 198 to 200 °C.
With `COc1ccccc1[C@H](c1cccc2ccccc12)[C@@](C)(C#N)C(=O)N1CCC(c2cccc(C(F)(F)F)c2)CC1` the melting point was 123 to 127 °C.
Work on `CN1Cc2c(C(=O)OC(C)(C)C)ncn2-c2cccc(C#N)c2C1=O` yielded a melting point of 213 to 215 °C.
For `O=C(Nc1ccccc1)c1cccc(Nc2cc(Cl)cc(Cl)c2)c1`, the melting point was 164 to 165 °C.
Work on `CCOc1cc(OCC(=O)N2CCN(C(=O)OC(C)(C)C)CC2)cc2c1C(=O)N(COC(=O)c1c(Cl)cccc1Cl)S2(=O)=O` yielded a melting point of 193 to 195 °C.
With `Oc1cccc(-c2noc3ccsc23)c1` the melting point was 114 to 116 °C.
Work on `Cc1nc(-c2ccc(O)cc2)[nH]c1Br` yielded a melting point of 205 to 212 °C.
Molecule `NC(=S)Nc1ccccc1O` has a melting point of 161 °C.
With `Cc1cc(C=C2SC(=S)NC2=O)cc(C(C)(C)C)c1O` the melting point was 210 to 216 °C.
Work on `COc1ccc(-c2ccc(N3C[C@H](CNC(C)=O)OC3=O)cc2F)ccc1=O` yielded a melting point of 227 to 228 °C.
Work on `COC(=O)c1cc(CCc2cc(OC)ccc2OC)ccc1N` yielded a melting point of 50 to 55 °C.
Work on `COc1cc(Nc2c(C#N)cnc3cc(F)ccc23)c(Cl)cc1Cl` yielded a melting point of 199 to 201 °C.
For `CCOC(=O)Nc1c(C)cc(Cl)cc1C(=O)O`, the melting point was 124 to 126 °C.
For `NCC1(O)CCCc2c1ccc1c2OCO1` (centres undefined), the melting point was 140 to 142 °C.
Molecule `COc1cc(NS(=O)(=O)c2ccc(Cl)cc2)c(C(=O)O)cc1OC` has a melting point of 168 to 169 °C.
For `Cc1cc(C)cc(C(=O)OC2CCCCC2=O)c1` (centres undefined), the melting point was 65 to 66 °C.
For `COc1ccc(C#CC(C)N(O)C(N)=O)cc1Oc1ccc(F)cc1` (centres undefined), the melting point was 139 to 140 °C.
With `NS(=O)(=O)c1cc2cccnc2s1` the melting point was 223 to 225 °C.
For `CN1CCN(C(c2ccccc2)c2ccccc2)CC1(C)Cc1ccc2c(c1)OCCO2` (centres undefined), the melting point was 118 to 120 °C.
In the case of `CCCCCCC1(C(=O)NCCC)c2ccccc2Oc2ccccc21`, the melting point is reported as 76 to 77.5 °C.
Molecule `CCCCc1cc(CCCc2c3c(nn2CCC)c(N)nc2ccccc23)no1` has a melting point of 132 to 133 °C.
Molecule `Cc1c(Cl)cccc1N=Cc1ccccc1Cl` has a melting point of 83 to 85 °C.
With `CC(=O)NCCc1cccc2ccc(OCCCO)cc12` the melting point was 141 to 142 °C.
